Experimental data published in patent US20220213070A1, “COMPOUNDS INHIBITING TDG ACTIVITY” (EPITAS BIOSCIENCES (SHANGHAI) CO., LTD., priority 2019, published 2022).

Tests used:
[1] = target: T1, TDG (Homo sapiens, UniProt Q13569); experiment: Inhibition of TDG mismatch repair activity (fluorescent G·U double-stranded DNA probe T1-T2); type: biochemical; details: TDG 100 nM/L, preincubated with compound 37° C. 30 minutes; probe 30 nM; read-out: Inhibitory activity on TDG mismatch repair IC50
Method in brief: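 TDG (100 nM/L) preincubated with compound 30 min at 37 °C in 20 mM HEPES pH7.5, 100 mM NaCl, 0.2 mM EDTA, 2.5 mM MgCl2, then 30 nM FAM/biotin G·U probe for 30 min at 25 °C. After streptavidin bead capture and 200 mM NaOH, supernatant fluorescence read at 485/520 nm; IC50 determined.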

[2] = tested on: Lung cancer cell line Calu-1; experiment: Inhibition of the growth of Calu-1 cells (CellTiter-Glo, 72 hours); type: cell-based; details: Homo sapiens, 72 hours of culturing, read-out: Inhibitory activity on alu-1 cell growth IC50
Method in brief: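 Calu-1 cells in McCoy's 5A with 10% FBS, seeded at 500 cells/well and dosed the next day at 0.1% DMSO final. Viability was read by CellTiter-Glo 2.0 luminescence after 72 h at 37° C. Activity class: ++ for IC50 ≤5 μM, + for IC50 >5 μM.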

[3] = target: T1, TDG; experiment: TDG inhibitory activity of compounds in cells (caC-cmv-firefly luciferase reporter, HEK 293T TDG KO cells transfected with pCDNA4-TDG); type: cell-based; details: read-out: Inhibition rate on TDG activity
Method in brief: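 TDG-knockout HEK 293T cells co-transfected with an in vitro Tet1-oxidised, 5caC-modified CMV-firefly reporter, a Renilla control and a TDG (or empty myc) plasmid, then treated with compounds for 72 h at 37°C. Firefly/Renilla ratio gives relative TDG activity inhibition, with activity bins set at 10 μM.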

T1 sequence (Q13569 whole entry): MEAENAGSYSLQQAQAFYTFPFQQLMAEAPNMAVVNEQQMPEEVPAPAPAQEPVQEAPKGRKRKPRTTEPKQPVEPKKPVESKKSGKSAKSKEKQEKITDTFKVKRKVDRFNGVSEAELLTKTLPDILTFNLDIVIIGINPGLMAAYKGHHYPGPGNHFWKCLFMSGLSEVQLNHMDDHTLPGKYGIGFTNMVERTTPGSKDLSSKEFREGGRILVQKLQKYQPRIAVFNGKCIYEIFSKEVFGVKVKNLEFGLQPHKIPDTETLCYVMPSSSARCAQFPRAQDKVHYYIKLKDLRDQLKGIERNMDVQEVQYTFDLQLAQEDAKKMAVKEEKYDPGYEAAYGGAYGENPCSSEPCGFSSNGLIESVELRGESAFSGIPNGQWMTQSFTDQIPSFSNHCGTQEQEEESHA

Compound	IC50 [1] [µM]	IC50 [2] [µM]	inhibition at 10 µM [3] [%]
O=C(CCN1CCC(O)(c2ccccc2)C1)c1ccc2c(c1)OCCO2 (stereo not drawn) [Compound 44, 1-(2,3-dihydrobenzo[b][1,4]dioxin-6-yl)-3-(3-hydroxy-3-phenylpyrrolidin-1-yl)propan-1-one]	> 5	≤ 5	< 25
O=C(CCN1CC2C=CC(c3ccncc3)=CC2C1)c1ccc2c(c1)OCCO2 (stereo not drawn) [Compound 41, 1-(2,3-dihydrobenzo[b][1,4]dioxin-6-yl)-3-(5-(pyridin-4-yl)-1,3,3a,7αtetrahydro-2H-isoindolepyridin-2-yl)propan-1-one]	> 5	> 5	< 25
CC(=O)c1ccc2c(c1)CN(CCC(=O)c1ccc3c(c1)OCCO3)C2 [Compound 7, 3-(5-acetylisoindolin-2-yl)-1-(2,3-dihydrobenzo[b][1,4]dioxin-6-yl)propan-1-one]	≤ 5	> 5	< 25
O=C(CCNC1=NCc2ccccc21)c1ccc2c(c1)OCCO2 [Compound 26, 3-((1H-isoindo1-3-yl)amino)-1-(2,3-dihydrobenzo[b][1,4]dioxin-6-yl)propan-1-one]	> 5	> 5	< 25
COc1ccc2cn(CCC(=O)c3ccc4c(c3)OCCO4)nc2c1 [Compound 24, 1-(2,3-dihydrobenzo[b][1,4]dioxin-6-yl)-3-(6-methoxy-2H-indazol-2-yl)propan-1-one]	> 5	> 5	< 25
O=C(CCN1CCC(O)(c2ccc(F)cc2)C1)c1ccc2c(c1)OCCO2 (stereo not drawn) [Compound 43, 1-(2,3-dihydrobenzo[b][1,4]dioxin-6-yl)-3-(3-(4-fluorophenyl)-3-hydroxypyrrolidine-1-yl)propan-1-one]	≤ 5	≤ 5	< 25
